# From patent US20120157377A1, “METHODS TO ENHANCE NIGHT VISION AND TREATMENT OF NIGHT BLINDNESS” (priority 2012, published 2012)
# Assays:
# [1] = cited from earlier work
# mice = conditions: cited from earlier work
# humans = assay: Case reports: ophthalmic drops instilled into the conjunctival sac for night vision and night blindness; conditions: micro doses in the ophthalmic drops
SMILES,red fluorescence (>640 nm) of eyes versus control mice ([1]; intravenously injected chlorin e6),"fluorescence emission of removed eyes (uptake by the retina) ([1]; mice, 2.00 mg per kilogram body weight intravenously, one hour after administration)","persistence of deposits in the photoreceptors ([1]; mice, intravenous chlorin e6)",neural impulse generation in the retina in response to amber light (mice; in the presence of chlorin e6),neural impulse generation in the retina in response to red and blue light (mice; in the presence of chlorin e6),electroretinographic amplitudes in response to red and blue light (mice; mice administered chlorin e6),hallucinogenic or other ill effect (humans)
C=Cc1c(C)c2cc3nc(c(CC(=O)O)c4[nH]c(cc5nc(cc1[nH]2)C(C)=C5CC)c(C)c4C(=O)O)[C@@H](CCC(=O)O)[C@@H]3C (relative stereo) [chlorin e6],three times more red fluorescence,strong emission band of red florescence centered at 675 nm,remained in the photoreceptors for three hours post administration,not amber light,almost two-fold increase,two-fold greater,
CNC1(c2ccccc2Cl)CCCCC1=O (stereo not shown) [ketamine],,,,,,,no hallucinogenic or other ill effect
